Experimental data reported in patent US9351488B2, “Peracetic acid composition” (PEROXYCHEM LLC, priority 2006, dated 2016).

Experiment: Kill rate of peracetic acid 400-660 ppm with and without adjuvant
Assay type: cell-based
Conditions: peracetic acid 400-660 ppm in aqueous solution
Excerpt: Use of oxidative lysing agents such as peracetic acid in aqueous solution at concentration(s) ranging from 400-660 ppm provided only moderate kill rates with log reductions of 4-5.5. However, use of peracetic acid at the same concentrations with the addition of the adjuvant herein described produced improved kill rates up to complete destruction of the species with log reductions of 6 or recovery rates of 0.

CC(=O)OO [peracetic acid]
log reductions: 4-5.5 log
